Key:
Format in all cases: cell-based
[1] = test system: SDH-A (succinate dehydrogenase-A); experiment: Mitochondria toxicity assay with PC3 cells, in-cell ELISA SDH-A; details: 5 days treatment
Method: (§1) Exemplary compounds were tested for inhibition of expression of mitochondria DNA encoded proteins COX-1 […]. SDH-A (succinate dehydrogenase-A) is a control mitochondria protein encoded by nuclear DNA. Reduction in COX-1 expression indicates off target inhibition of mitochondria DNA synthesis which leads to mitochondrial toxicity. Assay procedures and results are described below.
(§2) PC3 cells were purchased from ATCC and cultured in F-12 Kaighn's modified medium (Hyclone), 10% heat-inactivated fetal bovine serum (Invitrogen), 1% Penicillin-Streptomycin (Invitrogen). PC3 cells were treated with a dose titration of a test compound on 96 well plates for 5 days at 37° C., 5% CO2 in a humidified incubator. The treatment plates are duplicated, one for in-cell ELISA for mitochondria proteins and one for cytotoxicity.
(§3) In-cell ELISA was performed to measure mitochondrial proteins using MitoBiogenesis In-Cell ELISA kit (Abcam) per manufacturer's instruction. The medium was aspirated from the compound treated cells, 100 μl per well of 4% paraformaldehyde (Solarbio) was added and cells were incubated at room temperature for 20 minutes. The cells were washed three times with PBS. 100 μl of 0.5% acetic acid was added per cell, and the cells were incubate at room temperature for 5 minutes. Cells were washed once with PBS. 100 μl per well of Permeabilization Buffer was added, and the cells incubate at room temperature for 30 minutes. The permeabilization buffer was removed and 200 μl per well 2× Blocking Buffer was added and the cells were incubated at room temperature for 2 hours. After removing the Blocking Buffer 100 μl per well of primary antibody to SDH-A or COX-1 was added, and the cells were incubated at 4° C. overnight. The primary antibody solution was removed and cells were washed 3 times with the Wash Buffer. 100 μl per well of AP- and HRP-labelled secondary antibodies was added, and the cells were incubated at room temperature for 1 hour. The cells were then washed 4 times with the Wash Buffer. For SDH-A detection, 100 μl per well AP Development Solution was added, and the cells were incubated at room temperature for 10 minutes. Cells were then read on CLARTO star^plus microplate reader (BMG Labtech) for kinetic readings at 405 nm for 5 minutes. […] The cells were then read on CLARTO star^plus microplate reader (BMG Labtech) for kinetic readings at 600 nm for 15 minutes.
(§4) In the table “A” represents values<1.0 μM; “B” represents values from >1.0 μM to ≤10.0 μM; “C” represents values from >10.0 μM to ≤50.0 μM; “D” represents values from >50.0 μM to ≤100.0 μM; and “E” represents values>100.0 μM.

[2] = Mitochondria toxicity assay with PC3 cells, in-cell ELISA COX-1; details: 5 days treatment
Method: as §1, §2, §3, §4

PC3 cells = experiment: Mitochondria toxicity assay with PC3 cells, cytotoxicity (Cell Titer Glo); details: Homo sapiens, PC-3, 120 h, 5 days treatment
Method: as §2
For the cytotoxicity assay, the medium from the cell viability plate was removed, 50 μL per well of Cell Titer Glo (Promega, G9683) was added. Then the cells incubated for 30 minutes at room temperature. Luminescence was read by Envision (PerkinElmer 2105).
as §4

Row | Structure (SMILES) | IC50 [1] [µM] | IC50 [2] [µM] | IC50 (PC3 cells) [µM]
1 | Nc1nc(F)nc2c1ncn2[C@H]1C[C@H](O)C(CO)(CO)O1 [Compound 10, ((3S,5R)-5-(6-amino-2-fluoro-9H-purin-9-yl)-3-hydroxytetrahydrofuran-2,2-diyl) dimethanol] | 1 to 10 | 1 to 10 | 10 to 50
2 | Cc1cn([C@H]2C[C@H](O)[C@](CO)(N=[N+]=[N-])O2)c(=O)[nH]c1=O [Compound 30, 1-((2R,4S,5R)-5-azido-4-hydroxy-5-(hydroxymethyl)tetrahydrofuran-2-yl)-5-methylpyrimidine-2,4(1H,3H)-dione] | > 100 | > 100 | > 100
3 | CO[C@]1(CO)O[C@@H](n2ccc(N)nc2=O)C[C@@H]1O [Compound 48, 4-amino-1-((2R,4S,5R)-4-hydroxy-5-(hydroxymethyl)-5-methoxytetrahydrofuran-2-yl)pyrimidin-2(1H)-one] | 1 to 10 | 1 to 10 | 10 to 50
4 | [N-]=[N+]=N[C@]1(CO)O[C@@H](n2ccc(N)nc2=O)C[C@@H]1O [Compound 49, 4-amino-1-((2R,4S,5R)-5-azido-4-hydroxy-5-(hydroxymethyl)tetrahydro-furan-2-yl)pyrimidin-2(1H)-one] | < 1 | < 1 | < 1
5 | CO[C@H]1C[C@H](n2ccc(N)nc2=O)O[C@@]1(CO)CCl [Compound 54, 4-amino-1-[(2R,4S,5R)-5-(chloromethyl)-5-(hydroxymethyl)-4-methoxyoxolan-2-yl]-3,4-dihydropyrimidin-2-one] | > 100 | > 100 | > 100
6 | Nc1ccn([C@H]2C[C@@H](O)[C@](CO)(CCl)O2)c(=O)n1 [Compound 59, 4-amino-1-[(2R,4R,5R)-5-(chloromethyl)-4-hydroxy-5-(hydroxymethyl)oxolan-2-yl] pyrimidin-2-one] | > 100 | > 100 | > 100
7 | Nc1nc(=O)n([C@H]2C[C@H](O)[C@](CO)(CCl)O2)cc1C(F)(F)F [Compound 71, 4-amino-1-((2R,4S,5R)-5-(chloromethyl)-4-hydroxy-5-(hydroxymethyl)tetrahydrofuran-2-yl)-5-(trifluoromethyl)pyrimidin-2(1H)-one] | > 100 | > 100 | > 100
8 | Nc1ncnn2c([C@H]3C[C@H](O)[C@](CO)(CF)O3)ccc12 [Compound 79, (2R,3S,5R)-5-(4-aminopyrrolo[2,1-f] [1,2,4]triazin-7-yl)-2-(fluoromethyl)-2-(hydroxymethyl) tetrahydrofuran-3-ol] | > 100 | > 100 | > 100
9 | Nc1nc2c(ncn2[C@@H]2O[C@@](CO)(CF)[C@@H](O)[C@@H]2F)c(=O)[nH]1 [Compound 83, 2-amino-9-((2R,3S,4R,5R)-3-fluoro-5-(fluoromethyl)-4-hydroxy-5-(hydroxymethyl)tetrahydrofuran-2-yl)-1,9-dihydro-6H-purin-6-one] | 10 to 50 | 10 to 50 | 10 to 50
10 | Nc1nc(F)nc2c1ncn2[C@@H]1O[C@@](CO)(CF)[C@@H](O)[C@@H]1F [Compound 84] | 50 to 100 | 10 to 50 | 10 to 50
11 | Nc1nc2c(ncn2[C@@H]2O[C@@](CO)(CCl)[C@@H](O)[C@@H]2O)c(=O)[nH]1 [Compound 94, 2-amino-9-[(2R,3S,4S,5R)-5-(chloromethyl)-3,4-dihydroxy-5-(hydroxymethyl)oxolan-2-yl]-1H-purin-6-one] | > 100 | > 100 | > 100
12 | Nc1nc(=O)n([C@@H]2O[C@@](CO)(C(F)(F)F)[C@@H](O)[C@@H]2O)cc1F [Compound 95, 4-amino-1-((2R,3S,4S,5R)-3,4-dihydroxy-5-(hydroxymethyl)-5-(trifluoromethyl)tetrahydrofuran-2-yl)-5-fluoropyrimidin-2(1H)-one] | > 100 | > 100 | > 100
13 | Nc1nc(=O)n([C@@H]2O[C@@](CO)(CI)[C@@H](O)[C@@H]2F)cc1F [Compound 129, 4-amino-5-fluoro-1-((2R,3S,4R,5R)-3-fluoro-4-hydroxy-5-(hydroxymethyl)-5-(iodomethyl)tetrahydrofuran-2-yl)pyrimidin-2(1H)-one] | > 100 | > 100 | > 100
14 | Nc1nc(=O)n([C@@H]2O[C@](/C=C\Cl)(CO)[C@@H](O)[C@@H]2F)cc1F [Compound 132, 4-amino-1-[(2R,3S,4R,5R)-5-(2-chloroethenyl)-3-fluoro-4-hydroxy-5(Z)-(hydroxymethyl)oxolan-2-yl]-5-fluoropyrimidin-2-one] | > 100 | > 100 | > 100
15 | CSC[C@]1(CO)O[C@@H](n2cc(F)c(N)nc2=O)[C@@H](F)[C@@H]1O [Compound 135, 4-amino-5-fluoro-1-[(2R,3S,4R,5R)-3-fluoro-4-hydroxy-5-(hydroxymethyl)-5-[(methylsulfanyl)methyl]oxolan-2-yl] pyrimidin-2-one] | 10 to 50 | 1 to 10 | 10 to 50
16 | NC(=O)[C@]1(CO)O[C@@H](n2cc(F)c(N)nc2=O)[C@@H](F)[C@@H]1O [Compound 138, (2R,3R,4S,5R)-5-(4-amino-5-fluoro-2-oxopyrimidin-1-yl)-4-fluoro-3-hydroxy-2-(hydroxymethyl) oxolane-2-carboxamide] | > 100 | > 100 | > 100
17 | NC[C@]1(CO)O[C@@H](n2cc(F)c(N)nc2=O)[C@@H](F)[C@@H]1O [Compound 139, 4-amino-1-[(2R,3S,4R,5R)-5-(aminomethyl)-3-fluoro-4-hydroxy-5-(hydroxymethyl)oxolan-2-yl]-5-fluoropyrimidin-2-one] | > 100 | > 100 | > 100
18 | CC(O)[C@]1(CO)O[C@@H](n2cc(F)c(=O)[nH]c2=O)[C@@H](F)[C@@H]1O (stereo partly drawn) [Compound 162, 5-fluoro-1-[(2R,3S,4R,5S)-3-fluoro-4-hydroxy-5-(1-hydroxyethyl)-5-(hydroxymethyl)oxolan-2-yl]-3H-pyrimidine-2,4-dione] | > 100 | > 100 | > 100
19 | O=c1[nH]c(=O)n([C@@H]2O[C@@](CO)(CCl)[C@@H](O)[C@@H]2F)cc1F [Compound 163, 1-[(2R,3S,4R,5R)-5-(chloromethyl)-3-fluoro-4-hydroxy-5-(hydroxymethyl)oxolan-2-yl]-5-fluoro-3H-pyrimidine-2,4-dione] | > 100 | > 100 | > 100
20 | N#C[C@]1(CO)O[C@@H](n2cc(F)c(N)nc2=O)[C@@H](F)[C@@H]1O [Compound 166] | > 100 | > 100 | > 100
